Assay in all cases: inhibition of tumour cell growth, NCI panel, 48 h
Test [1] relates to K562.
Test [2] deals with LXFL 529.
The subject of test [3] is NCI-H460.
The subject of test [4] is OVCAR-5.
Test [5] relates to RPMI-8226.
Test [6] deals with SK-OV-3.
Test [7] has as its system SN12C.
The test system of test [8] is SR.
The subject of test [9] is TK-10.
Test [10] deals with DMS-273.
Test [11] deals with HOP-18.
Test [12] has as its system MCF7.
Test [13] concerns NCI/ADR-RES.
The test system of test [14] is SNB-78.
Test [15] has as its system CAKI-1.
The test system of test [16] is 786-0.
Test [17] deals with BT-549.
In test [18] the test system is MDA-N.
For test [19], the system named is PC-3.
Test [20] deals with T47D.

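Growth conditions: 96-well plates. Treatment: test compound, 48 hours, 5 concentrations. Analysis: linear interpolation between bracketing concentrations; unreached endpoints set to highest concentration. GI50 is the concentration that inhibits growth by half.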 Active and inactive are the calls of the source. No stated cut-off is given here; in the data, active = GI50 up to about 1.1 µM and inactive = higher.

Consider `O=C(NN1C(=O)C(Cl)C1c1ccc([N+](=O)[O-])cc1)c1ccccc1O` (stereo not given), for which the GI50 in test [1], in [2], in [3], in [4], in test [5] and in test [6] was > 100 µM (inactive) each time. For the same compound, the GI50 in test [7], in [8] and in [9] was > 100 µM (inactive) each time.
Turning to `Nc1c(S(=O)(=O)O)cc2cc(S(=O)(=O)O)ccc2c1/N=N/c1ccc(-c2ccc(/N=N/c3c(N)c(S(=O)(=O)O)cc4cc(S(=O)(=O)O)ccc34)c(S(=O)(=O)O)c2)cc1`, the GI50 is > 100 µM (inactive) in test [10]; > 100 µM (inactive) in [11]; > 100 µM (inactive) in test [1]; 22.8 µM (inactive) in test [12]; > 31.6 µM (inactive) in [3]; > 100 µM (inactive) in test [13]. For the same compound, the GI50 in test [4] was > 100 µM (inactive); in test [5] it was > 100 µM (inactive); in test [6] it was > 100 µM (inactive); in [7] it was > 100 µM (inactive); in test [14] it was 97.7 µM (inactive).
Turning to `COc1cc2cc3c4cc(OC)c(OC)cc4cc[n+]3cc2cc1OC`, the GI50 in [15] is > 100 µM (inactive); in test [10], > 100 µM (inactive); in test [11] it was > 100 µM (inactive); in test [1] it was > 100 µM (inactive); in test [12], > 31.6 µM (inactive); in test [3], > 100 µM (inactive). Further, the GI50 was > 100 µM (inactive) in test [13]; > 100 µM (inactive) in [4]; > 100 µM (inactive) in test [5]; > 82.2 µM (inactive) in test [6]; 12.4 µM (inactive) in test [7]; > 74.3 µM (inactive) in test [14].
As to `S=CN1CCCCC1`, the GI50 in [16], in test [17], in test [15], in test [1], in test [12] and in test [18] was > 100 µM (inactive) in each case. The GI50 in test [3], in test [13], in test [4], in test [19], in [5] and in test [6] was > 100 µM (inactive) throughout. In addition, the GI50 in [7], in [8], in test [20] and in test [9] was > 100 µM (inactive) in each case.
Regarding `NN1C(=O)C(CCO)S/C1=N/N=C1/SC(CCO)C(=O)N1N` (stereo not given), the GI50 in test [16], in [15], in test [11], in test [1], in test [2] and in test [3] was > 100 µM (inactive) each time. Moreover, the GI50 in [4], in test [5], in test [6], in test [7], in [14] and in test [8] was > 100 µM (inactive) each time.
Take `c1ccc(C(c2ccccc2)[P+](c2ccccc2)(c2ccccc2)c2ccccc2)cc1`: the GI50 in test [15] is 2.69 µM (inactive); in [10], 0.349 µM (active); in test [11], 0.369 µM (active); in test [1] it was 0.427 µM (active); in test [12] it was 0.449 µM (active); in [3] it was 0.456 µM (active). Besides, the GI50 in [13] was 35.2 µM (inactive); in test [4], 0.933 µM (active); in test [5] it was 0.226 µM (active); in [6], 0.596 µM (active); in test [7], 0.592 µM (active); in [14], 0.612 µM (active).
Consider `CC1=C(C(=O)Nc2cccc(Cl)c2)C(c2ccccc2O)C(C(=O)Nc2cccc(Cl)c2)=C(C)N1`, for which the GI50 in test [16] is 15.7 µM (inactive); in test [15], 22 µM (inactive); in test [1], 22.4 µM (inactive); in test [2], 21.8 µM (inactive); in test [3] it was 21.6 µM (inactive); in test [4] it was 19.4 µM (inactive). Also, the GI50 in test [5] is 20.7 µM (inactive); in [6] it was 24.3 µM (inactive); in test [7] it was 21.8 µM (inactive); in [14], 24.5 µM (inactive); in [9], 18.9 µM (inactive).
Regarding `CC(=O)NNc1nc(C)c(C(=O)NNC(=O)C(=O)Nc2ccc([N+](=O)[O-])cc2[N+](=O)[O-])s1`, the GI50 was 57.1 µM (inactive) in [15]; > 100 µM (inactive) in test [10]; 39.4 µM (inactive) in test [1]; 93.1 µM (inactive) in [2]; > 100 µM (inactive) in test [3]; > 100 µM (inactive) in [4]. In addition, the GI50 is 99.8 µM (inactive) in test [5]; > 100 µM (inactive) in test [6]; > 100 µM (inactive) in test [7]; > 100 µM (inactive) in test [14]; 81.1 µM (inactive) in [8]; > 100 µM (inactive) in [9].
Consider `CCOC(=O)C1=C(C)N(NC(N)=O)C2(O)CCCC(=O)C12C` (stereo not given), for which the GI50 in test [15], in [10], in test [11], in test [2], in test [4] and in [5] was > 100 µM (inactive) throughout. Further, the GI50 is > 100 µM (inactive) in [6]; > 100 µM (inactive) in test [7]; > 100 µM (inactive) in test [14]; > 10 µM (inactive) in test [8]; > 100 µM (inactive) in [9].
As to `COc1ccc(NC(=O)C(=O)C(C(=O)c2ccccc2)C2OC(=O)c3ccccc32)c([N+](=O)[O-])c1` (stereo not given), the GI50 in [16], in test [15], in [10], in test [11], in test [1] and in [2] was > 100 µM (inactive) throughout. For the same compound, the GI50 in [3], in test [4], in [5], in [6], in [7] and in test [14] was > 100 µM (inactive) in each case. Also, the GI50 in test [8] and in [9] was > 100 µM (inactive) in each case.
As to `COc1cccc2[s+]snc12`, the GI50 in test [16] was 33.6 µM (inactive); in test [15], 66.1 µM (inactive); in test [10], 53.2 µM (inactive); in test [11], 41.3 µM (inactive); in test [1] it was 25.7 µM (inactive); in test [2] it was 43.3 µM (inactive). For the same compound, the GI50 in test [3] was 68.4 µM (inactive); in [4], > 100 µM (inactive); in [6], > 100 µM (inactive); in [7] it was 35.5 µM (inactive); in [14], 38.7 µM (inactive); in test [8], 22.2 µM (inactive). Besides, in test [9], the GI50 was > 100 µM (inactive).
As for `CSc1nc(SC)c2cnn(CC3CO3)c2n1` (stereo not given), the GI50 in [10] was 22.8 µM (inactive); in test [11], 20.9 µM (inactive); in [1], 26.5 µM (inactive); in test [12], 9.44 µM (inactive); in test [3], 21 µM (inactive); in [13], 13.8 µM (inactive). For the same compound, the GI50 in test [4] is 17 µM (inactive); in test [5], 35.1 µM (inactive); in test [6], 30.8 µM (inactive); in test [7] it was 20.2 µM (inactive).
As for `COc1cccc2c1C(=O)c1c(O)c3c(c(O)c1C2=O)CC(O)(C(=O)CO)CC3OC1CC(N)C(I)C(C)O1` (stereo not given), the GI50 in test [15] was 2.87 µM (inactive); in [10], 0.424 µM (active); in test [11], 7.96 µM (inactive); in test [1], 4.76 µM (inactive); in test [12], 1.17 µM (inactive); in test [3], 0.313 µM (active). Also, the GI50 in test [13] is 12.4 µM (inactive); in test [4] it was 13.5 µM (inactive); in [5], 4.5 µM (inactive); in test [6] it was 3.98 µM (inactive); in [7] it was 2.38 µM (inactive); in test [14], 25.7 µM (inactive).
